Legend:
HIV-1 T20S = type: cell-based; conditions: HIV-1 T20S, Table 5
Description: (§1) Illustrated in this example is the unexpected result of antiviral potency using the conjugates according to the present invention. […] In determining antiviral activity (e.g., one measure being the ability to inhibit transmission of HIV to a target cell) of the conjugates according to the present invention, used was an in vitro assay which has been shown, by data generated using synthetic peptides derived from either of the HR regions of HIV gp41, to be predictive of antiviral activity observed in vivo.
(§2) The infectivity assays score for reduction of infectious virus titer employing the indicator cell lines MAGI or the CCR5 expressing derivative cMAGI. Both cell lines exploit the ability of HIV-1 that to transactivate the expression of a β-galactosidase reporter gene driven by the HIV-LTR. The β-gal reporter has been modified to localize in the nucleus and can be detected with the X-gal substrate as intense nuclear staining within a few days of infection. The number of stained nuclei can thus be interpreted as equal to the number of infectious virions in the challenge inoculum if there is only one round of infection prior to staining. Infected cells are enumerated using a CCD-imager and both primary and laboratory adapted isolates show a linear relationship between virus input and the number of infected cells visualized by the imager. […] Peptides tested for antiviral activity were diluted into various concentrations, and tested in duplicate or triplicate against an HIV inoculum adjusted to yield approximately 1500-2000 infected cells/well of a 48 well microtiter plate. The peptide (in the respective dilution) was added to the CMAGI or MAGI cells, followed by the virus inocula; and 24 hours later, an inhibitor of infection and cell-cell fusion (e.g., T20) was added to prevent secondary rounds of HIV infection and cell-cell virus spread. The cells were cultured for 2 more days, and then fixed and stained with the X-gal substrate to detect HIV-infected cells. The number of infected cells for each control and peptide dilution was determined with the CCD-imager, and then the IC50 and IC90 were calculated (expressed in μg/ml).
In this first example of antiviral potency, two clinical isolates of HIV were obtained from the same HIV-infected individual. A first isolate, hereby designated “HIV-1 T20S” for ease of description, was sensitive to the antiviral effect of T20 (SEQ ID NO:4) both in vitro and in vivo. […] The results, with the IC50 expressed in ng/ml, are illustrated in Table 2.
(§3) Using the methods taught in Example 1 herein, additional conjugates were produced by varying the polymer, the terminus of the synthetic peptide which is operably bound to polymer, and the reactive functionality used for operably binding synthetic peptide to polymer. Two molecules of synthetic peptide (e.g. SEQ ID NO:4) were operably bound to polymer. Such conjugates were then tested for antiviral activity against HIV isolates IIIB, and HIV-1 T20S & HIV-1 T20R (see Table 2 for HIV resistant strains), with the antiviral activity (IC50) expressed in μg/ml. The results for the various conjugates (Table 5, A-Q), terminus of synthetic peptide used for operably binding polymer (Table 5, C-terminus denoted as “C”, N-terminus denoted as “N”) or if an internal lysine was used (Table 5, “Lys 18”, signifying lysine as amino acid residue 18 in the amino acid sequence of the synthetic peptide), antiviral activity (IC50) against HIV-1 strain IIIB (Table 5, “IIIB”), antiviral activity (IC50) against HIV-1 T20S (Table 5, “T20S”) and antiviral activity (IC50) against HIV-1 T20R (Table 5, “T20R”), are illustrated in Table 5.

HIV-1 T20R = type: cell-based; conditions: HIV-1 T20R, Table 5
Description: The infectivity assays score for reduction of infectious virus titer employing the indicator cell lines MAGI or the CCR5 expressing derivative cMAGI. Both cell lines exploit the ability of HIV-1 that to transactivate the expression of a β-galactosidase reporter gene driven by the HIV-LTR. The β-gal reporter has been modified to localize in the nucleus and can be detected with the X-gal substrate as intense nuclear staining within a few days of infection. The number of stained nuclei can thus be interpreted as equal to the number of infectious virions in the challenge inoculum if there is only one round of infection prior to staining. […] The peptide (in the respective dilution) was added to the CMAGI or MAGI cells, followed by the virus inocula; and 24 hours later, an inhibitor of infection and cell-cell fusion (e.g., T20) was added to prevent secondary rounds of HIV infection and cell-cell virus spread. The cells were cultured for 2 more days, and then fixed and stained with the X-gal substrate to detect HIV-infected cells. The number of infected cells for each control and peptide dilution was determined with the CCD-imager, and then the IC50 and IC90 were calculated (expressed in μg/ml).
In this first example of antiviral potency, two clinical isolates of HIV were obtained from the same HIV-infected individual.
Using the methods taught in Example 1 herein, additional conjugates were produced by varying the polymer, the terminus of the synthetic peptide which is operably bound to polymer, and the reactive functionality used for operably binding synthetic peptide to polymer. Two molecules of synthetic peptide (e.g. SEQ ID NO:4) were operably bound to polymer.

HIV-1 strain IIIB = assay: In vitro infectivity assay, HIV-1 strain IIIB (Table 5); type: cell-based
Description: as §1, §2, §3

HIV = conditions: Lawless et al., 1996; cited from earlier work

| Substance | T20S (antiviral activity, IC50) (HIV-1 T20S) | T20R (antiviral activity, IC50) (HIV-1 T20R) | IIIB (antiviral activity, IC50) (HIV-1 strain IIIB) | 50% effective concentration values (EC50), blocked infection of T cells (HIV) [µg/mL] |
| --- | --- | --- | --- | --- |
| Conjugate A: two molecules of SEQ ID NO:4 bound via N-terminus to PEG 6 | .029 µg/mL | .050 µg/mL | .037 µg/mL | – |
| Conjugate B: two molecules of SEQ ID NO:4 bound via C-terminus to PEG 6 | .053 µg/mL | .070 µg/mL | .117 µg/mL | – |
| Conjugate C: two molecules of SEQ ID NO:4 bound via C-terminus to PEG 6 | .046 µg/mL | .050 µg/mL | .065 µg/mL | – |
| Conjugate D: two molecules of SEQ ID NO:4 bound via N-terminus to alkyl C5 | .036 µg/mL | .049 µg/mL | .039 µg/mL | – |
| Conjugate E: two molecules of SEQ ID NO:4 bound via N-terminus to PEG 8 | .026 µg/mL | .020 µg/mL | .018 µg/mL | – |
| Conjugate F: two molecules of SEQ ID NO:4 bound via N-terminus to alkyl C8 | .049 µg/mL | .087 µg/mL | .089 µg/mL | – |
| Conjugate G: two molecules of SEQ ID NO:4 bound via N-terminus to alkyl C11 | .176 µg/mL | .218 µg/mL | .174 µg/mL | – |
| Conjugate H: SEQ ID NO:4 bound via N-terminus to AT, a triacid (e.g., trisuccinimidylamino triacetate) | .047 µg/mL | .124 µg/mL | .046 µg/mL | – |
| Conjugate I: two molecules of SEQ ID NO:4 bound via N-terminus to PEG 4-6-4 | .012 µg/mL | .029 µg/mL | .029 µg/mL | – |
| Conjugate J: two molecules of SEQ ID NO:4 bound via N-terminus to PEG 3 | .028 µg/mL | .049 µg/mL | .036 µg/mL | – |
| Conjugate K: two molecules of SEQ ID NO:4 bound via N-terminus to PEG 4 | .026 µg/mL | .067 µg/mL | .033 µg/mL | – |
| Conjugate L: two molecules of SEQ ID NO:4 bound via C-terminus to GLY-PEG 3 (glycine linker) | .061 µg/mL | – | – | – |
| Conjugate M: two molecules of SEQ ID NO:4 bound via C-terminus to GLY-C2 (glycine linker) | .085 µg/mL | – | – | – |
| Conjugate N: two molecules of SEQ ID NO:4 bound via N-terminus to PEG 10 | .017 µg/mL | .023 µg/mL | .039 µg/mL | – |
| Conjugate O: two molecules of SEQ ID NO:4 bound via C-terminus to GLY-C6 (glycine linker) | .083 µg/mL | – | – | – |
| Conjugate P: two molecules of SEQ ID NO:4 bound via C-terminus to GLY-PEG 6 (glycine linker) | .031 µg/mL | – | – | – |
| Conjugate Q: two molecules of SEQ ID NO:4 bound via internal lysine (Lys18) to PEG 6 | .055 µg/mL | .120 µg/mL | .057 µg/mL | – |
| LTWQEWDREINNYTSLIYSLIEESQNQQEENEQELL [synthetic peptide alone] | .010 µg/mL | 1.2 µg/mL | .007 µg/mL | – |
| NNLLRAIEAQQHLLQLTVWGIKQLQARILAVERYLKDQ [DP107] | – | – | – | 1 |
